Values quoted from earlier work, collected in patent publication US10870689B2, “ApoM-Fc fusion proteins, complexes thereof with sphingosine 1-phosphate (S1P), and methods for treating vascular and non-vascular diseases” (Children's Medical Center Corporation, priority 2016, dated 2020).

Target: T1, S1P1 (Homo sapiens, UniProt P21453)
T1 construct: expressed in transfected cells
Conditions: Hofmann et al. 2009; Tsukada et al. 2007

T1 sequence (P21453 whole entry, species assumed): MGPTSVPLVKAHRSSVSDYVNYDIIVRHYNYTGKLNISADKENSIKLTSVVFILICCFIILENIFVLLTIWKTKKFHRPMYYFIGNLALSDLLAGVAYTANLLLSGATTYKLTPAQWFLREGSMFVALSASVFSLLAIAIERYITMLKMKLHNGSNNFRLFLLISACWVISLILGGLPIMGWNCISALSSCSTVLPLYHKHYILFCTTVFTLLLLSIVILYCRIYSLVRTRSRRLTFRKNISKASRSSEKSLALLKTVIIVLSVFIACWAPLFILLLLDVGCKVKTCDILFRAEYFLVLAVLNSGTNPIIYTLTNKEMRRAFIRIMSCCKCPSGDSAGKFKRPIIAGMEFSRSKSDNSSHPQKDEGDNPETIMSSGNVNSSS

effect on cardiac rhythm: induced abnormal cardiac rhythm
Structure (SMILES): FC(F)(F)c1cccc(-c2noc(-c3cc(-c4ccccc4)c(C(F)(F)F)s3)n2)c1 [SEW2871]
